Data as given in the NIST ThermoML archive (doi:10.1016/j.fluid.2017.12.026).
Several values for one entry are separate records, joined by “and”; a condition that tells them apart may be missing. Equal entries are not always repeated.

Details: Coaxial cylinder method

CCCCC [pentane]
Details | thermal conductivity
309.04 K, 260 kPa, Liquid | 0.109 W/m/K
309.04 K, 261 kPa, Liquid | 0.1092 W/m/K
309.04 K, 1000 kPa, Liquid | 0.1095 W/m/K
309.04 K, 2000 kPa, Liquid | 0.1101 W/m/K
309.04 K, 3012 kPa, Liquid | 0.1108 W/m/K
309.04 K, 4151 kPa, Liquid | 0.1118 W/m/K
309.04 K, 4297 kPa, Liquid | 0.1117 W/m/K
309.04 K, 5604 kPa, Liquid | 0.1123 W/m/K
309.04 K, 6001 kPa, Liquid | 0.1125 W/m/K
309.04 K, 7000 kPa, Liquid | 0.113 W/m/K
309.04 K, 8108 kPa, Liquid | 0.1137 W/m/K
309.04 K, 9011 kPa, Liquid | 0.1142 W/m/K
309.04 K, 10008 kPa, Liquid | 0.1154 W/m/K
309.04 K, 11054 kPa, Liquid | 0.1161 W/m/K
309.04 K, 12000 kPa, Liquid | 0.1167 W/m/K
309.04 K, 12504 kPa, Liquid | 0.1168 W/m/K
309.04 K, 13000 kPa, Liquid | 0.1171 W/m/K
309.04 K, 14742 kPa, Liquid | 0.1181 W/m/K
309.04 K, 19800 kPa, Liquid | 0.1207 W/m/K
309.04 K, 19908 kPa, Liquid | 0.1205 W/m/K
309.04 K, 20004 kPa, Liquid | 0.1206 W/m/K
309.04 K, 24000 kPa, Liquid | 0.1231 W/m/K
309.04 K, 25000 kPa, Liquid | 0.1233 W/m/K
309.04 K, 28000 kPa, Liquid | 0.1241 W/m/K
309.04 K, 29100 kPa, Liquid | 0.1253 W/m/K
309.04 K, 29300 kPa, Liquid | 0.1256 W/m/K
309.04 K, 34000 kPa, Liquid | 0.1281 W/m/K
309.04 K, 35000 kPa, Liquid | 0.1286 W/m/K
309.04 K, 38000 kPa, Liquid | 0.1298 W/m/K
309.04 K, 39100 kPa, Liquid | 0.1299 W/m/K
309.04 K, 39176 kPa, Liquid | 0.13 W/m/K
309.04 K, 39350 kPa, Liquid | 0.1304 W/m/K
309.04 K, 49940 kPa, Liquid | 0.1352 W/m/K
309.04 K, 50230 kPa, Liquid | 0.1353 W/m/K
309.04 K, 50800 kPa, Liquid | 0.1352 W/m/K
315.55 K, 100 kPa, Gas | 0.01635 W/m/K
331.2 K, 2097 kPa, Liquid | 0.1035 W/m/K
331.2 K, 3000 kPa, Liquid | 0.1041 W/m/K
331.2 K, 3500 kPa, Liquid | 0.1045 W/m/K
331.2 K, 4000 kPa, Liquid | 0.1046 W/m/K
331.2 K, 5000 kPa, Liquid | 0.1053 W/m/K
331.2 K, 6000 kPa, Liquid | 0.1061 W/m/K
331.2 K, 7000 kPa, Liquid | 0.1068 W/m/K
331.2 K, 8000 kPa, Liquid | 0.1069 W/m/K
331.2 K, 9000 kPa, Liquid | 0.1072 W/m/K
331.2 K, 9500 kPa, Liquid | 0.1077 W/m/K
331.2 K, 10000 kPa, Liquid | 0.1078 W/m/K
331.2 K, 11000 kPa, Liquid | 0.1085 W/m/K
331.2 K, 12000 kPa, Liquid | 0.109 W/m/K
331.2 K, 13000 kPa, Liquid | 0.1094 W/m/K
331.2 K, 15000 kPa, Liquid | 0.1109 W/m/K
331.2 K, 16000 kPa, Liquid | 0.1115 W/m/K
331.2 K, 17000 kPa, Liquid | 0.1122 W/m/K
331.2 K, 18000 kPa, Liquid | 0.1126 W/m/K
331.2 K, 19000 kPa, Liquid | 0.1131 W/m/K
331.2 K, 20000 kPa, Liquid | 0.1139 W/m/K
331.2 K, 21000 kPa, Liquid | 0.1141 W/m/K
331.2 K, 22000 kPa, Liquid | 0.1148 W/m/K
331.2 K, 24000 kPa, Liquid | 0.1158 W/m/K
331.2 K, 25482 kPa, Liquid | 0.1167 W/m/K
331.2 K, 26404 kPa, Liquid | 0.1172 W/m/K
331.2 K, 27000 kPa, Liquid | 0.1176 W/m/K
331.2 K, 30000 kPa, Liquid | 0.1188 W/m/K
331.2 K, 31040 kPa, Liquid | 0.1193 W/m/K
331.2 K, 31081 kPa, Liquid | 0.1193 W/m/K
331.2 K, 32500 kPa, Liquid | 0.1202 W/m/K
331.2 K, 33500 kPa, Liquid | 0.1209 W/m/K
331.2 K, 34477 kPa, Liquid | 0.1211 W/m/K
331.2 K, 35500 kPa, Liquid | 0.1216 W/m/K
331.2 K, 36500 kPa, Liquid | 0.1224 W/m/K
331.2 K, 37885 kPa, Liquid | 0.1229 W/m/K
331.2 K, 38500 kPa, Liquid | 0.1231 W/m/K
331.2 K, 39000 kPa, Liquid | 0.1237 W/m/K
331.2 K, 39500 kPa, Liquid | 0.1239 W/m/K
331.2 K, 40000 kPa, Liquid | 0.1241 W/m/K
331.2 K, 41000 kPa, Liquid | 0.1242 W/m/K
331.2 K, 42000 kPa, Liquid | 0.1246 W/m/K
331.2 K, 43500 kPa, Liquid | 0.1255 W/m/K
331.2 K, 44500 kPa, Liquid | 0.1261 W/m/K
331.2 K, 45500 kPa, Liquid | 0.1266 W/m/K
331.2 K, 47000 kPa, Liquid | 0.1272 W/m/K
331.2 K, 48000 kPa, Liquid | 0.1273 W/m/K
331.2 K, 49500 kPa, Liquid | 0.1283 W/m/K
331.2 K, 50000 kPa, Liquid | 0.1278 W/m/K
386 K, 5061 kPa, Liquid | 0.09007 W/m/K
386 K, 10175 kPa, Liquid | 0.09446 W/m/K
386 K, 18875 kPa, Liquid | 0.0996 W/m/K
386 K, 20275 kPa, Liquid | 0.1023 W/m/K
386 K, 30275 kPa, Liquid | 0.1082 W/m/K
386 K, 34475 kPa, Liquid | 0.1107 W/m/K
386 K, 40275 kPa, Liquid | 0.1122 W/m/K
386 K, 49975 kPa, Liquid | 0.1184 W/m/K
386 K, 53475 kPa, Liquid | 0.1203 W/m/K
387.83 K, 75 kPa, Gas | 0.02437 W/m/K
387.83 K, 100 kPa, Gas | 0.02484 W/m/K
399.6 K, 2900 kPa, Liquid | 0.08457 W/m/K
399.6 K, 3000 kPa, Liquid | 0.08493 W/m/K
399.6 K, 4000 kPa, Liquid | 0.08522 W/m/K
399.6 K, 4500 kPa, Liquid | 0.08602 W/m/K
399.6 K, 5000 kPa, Liquid | 0.0869 W/m/K
399.6 K, 6000 kPa, Liquid | 0.088 W/m/K
399.6 K, 7000 kPa, Liquid | 0.08901 W/m/K
399.6 K, 7500 kPa, Liquid | 0.08952 W/m/K
399.6 K, 8000 kPa, Liquid | 0.0899 W/m/K
399.6 K, 9500 kPa, Liquid | 0.09127 W/m/K
399.6 K, 10000 kPa, Liquid | 0.09171 W/m/K
399.6 K, 11000 kPa, Liquid | 0.09237 W/m/K
399.6 K, 12000 kPa, Liquid | 0.09323 W/m/K
399.6 K, 13000 kPa, Liquid | 0.09372 W/m/K
399.6 K, 14000 kPa, Liquid | 0.09464 W/m/K
399.6 K, 15000 kPa, Liquid | 0.09518 W/m/K
399.6 K, 16000 kPa, Liquid | 0.09601 W/m/K
399.6 K, 17000 kPa, Liquid | 0.09671 W/m/K
399.6 K, 18000 kPa, Liquid | 0.09742 W/m/K
399.6 K, 19000 kPa, Liquid | 0.09836 W/m/K
399.6 K, 20000 kPa, Liquid | 0.0989 W/m/K
399.6 K, 21000 kPa, Liquid | 0.09955 W/m/K
399.6 K, 22000 kPa, Liquid | 0.1001 W/m/K
399.6 K, 23500 kPa, Liquid | 0.1011 W/m/K
399.6 K, 25000 kPa, Liquid | 0.1022 W/m/K
399.6 K, 26000 kPa, Liquid | 0.1026 W/m/K
399.6 K, 27000 kPa, Liquid | 0.1031 W/m/K
399.6 K, 28000 kPa, Liquid | 0.1037 W/m/K
399.6 K, 29000 kPa, Liquid | 0.1047 W/m/K
399.6 K, 30000 kPa, Liquid | 0.1051 W/m/K
399.6 K, 31000 kPa, Liquid | 0.1056 W/m/K
399.6 K, 33000 kPa, Liquid | 0.1066 W/m/K
399.6 K, 34000 kPa, Liquid | 0.1071 W/m/K
399.6 K, 35000 kPa, Liquid | 0.1076 W/m/K
399.6 K, 35301 kPa, Liquid | 0.1079 W/m/K
421.85 K, 100 kPa, Gas | 0.02874 W/m/K and 0.02895 W/m/K
421.85 K, 1640 kPa, Liquid | 0.07566 W/m/K
421.85 K, 1650 kPa, Liquid | 0.07566 W/m/K
421.85 K, 1660 kPa, Liquid | 0.07566 W/m/K
421.85 K, 1680 kPa, Liquid | 0.07566 W/m/K
421.85 K, 1700 kPa, Liquid | 0.07566 W/m/K
421.85 K, 1710 kPa, Liquid | 0.07566 W/m/K
421.85 K, 1720 kPa, Liquid | 0.07566 W/m/K
421.85 K, 1730 kPa, Liquid | 0.07596 W/m/K
421.85 K, 1750 kPa, Liquid | 0.07566 W/m/K
421.85 K, 1764 kPa, Liquid | 0.07568 W/m/K
421.85 K, 1772 kPa, Liquid | 0.07584 W/m/K
421.85 K, 1910 kPa, Liquid | 0.07624 W/m/K
421.85 K, 1946 kPa, Liquid | 0.0762 W/m/K
421.85 K, 1954 kPa, Liquid | 0.07621 W/m/K
422.2 K, 2518 kPa, Liquid | 0.07714 W/m/K
422.2 K, 5041 kPa, Liquid | 0.08091 W/m/K
422.2 K, 10475 kPa, Liquid | 0.08676 W/m/K
422.2 K, 18675 kPa, Liquid | 0.09347 W/m/K
422.2 K, 18775 kPa, Liquid | 0.09348 W/m/K
422.2 K, 20475 kPa, Liquid | 0.09413 W/m/K
422.2 K, 30575 kPa, Liquid | 0.1002 W/m/K
422.2 K, 30675 kPa, Liquid | 0.1007 W/m/K
422.2 K, 40275 kPa, Liquid | 0.1061 W/m/K
422.2 K, 48075 kPa, Liquid | 0.1104 W/m/K
422.2 K, 52975 kPa, Liquid | 0.1123 W/m/K
425.73 K, 100 kPa, Gas | 0.02926 W/m/K
425.74 K, 1560 kPa, Gas | 0.0319 W/m/K
425.8 K, 100 kPa, Gas | 0.0294 W/m/K
425.82 K, 100 kPa, Gas | 0.02926 W/m/K
426.24 K, 100 kPa, Gas | 0.02935 W/m/K
426.25 K, 100 kPa, Gas | 0.02935 W/m/K
426.25 K, 1210 kPa, Gas | 0.0316 W/m/K
426.25 K, 1280 kPa, Gas | 0.03151 W/m/K
